# Reference: ChEMBL document CHEMBL5723379, “Affinity On-target Cellular Literature for EUbOPEN Chemogenomic Library” (2024)
# How the values were obtained:
# [1] = biological target: T1, Peroxisome proliferator-activated receptor alpha (Homo sapiens, UniProt Q07869); test: Affinity On-target Cellular interaction: (Reporter gene assay (HEK293T cells)) EUB0000188b PPARA; type: functional, cell-based, HEK-293T; set-up: mode of action Agonist, recommended concentration 1 uM
# T1 sequence (Q07869 whole entry): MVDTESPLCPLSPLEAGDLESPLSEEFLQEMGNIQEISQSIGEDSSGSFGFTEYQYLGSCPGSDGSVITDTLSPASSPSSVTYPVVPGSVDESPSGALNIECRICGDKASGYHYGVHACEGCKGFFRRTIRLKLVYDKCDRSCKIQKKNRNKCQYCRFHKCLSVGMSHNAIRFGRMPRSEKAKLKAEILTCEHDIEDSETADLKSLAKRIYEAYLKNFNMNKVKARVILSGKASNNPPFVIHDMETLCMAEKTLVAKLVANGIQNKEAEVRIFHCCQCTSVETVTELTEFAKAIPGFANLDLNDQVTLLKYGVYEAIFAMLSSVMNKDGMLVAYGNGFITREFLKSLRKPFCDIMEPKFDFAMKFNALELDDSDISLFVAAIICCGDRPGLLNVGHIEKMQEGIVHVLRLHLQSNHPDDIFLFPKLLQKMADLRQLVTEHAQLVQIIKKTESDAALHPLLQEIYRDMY
# [2] = biological target: T2, Peroxisome proliferator-activated receptor delta (Homo sapiens, UniProt Q03181); test: Affinity On-target Cellular interaction: (Reporter gene assay (HEK293T cells)) EUB0000188b PPARD; type: functional, cell-based, HEK-293T; set-up: mode of action Agonist, recommended concentration 1 uM
# T2 sequence (Q03181 whole entry): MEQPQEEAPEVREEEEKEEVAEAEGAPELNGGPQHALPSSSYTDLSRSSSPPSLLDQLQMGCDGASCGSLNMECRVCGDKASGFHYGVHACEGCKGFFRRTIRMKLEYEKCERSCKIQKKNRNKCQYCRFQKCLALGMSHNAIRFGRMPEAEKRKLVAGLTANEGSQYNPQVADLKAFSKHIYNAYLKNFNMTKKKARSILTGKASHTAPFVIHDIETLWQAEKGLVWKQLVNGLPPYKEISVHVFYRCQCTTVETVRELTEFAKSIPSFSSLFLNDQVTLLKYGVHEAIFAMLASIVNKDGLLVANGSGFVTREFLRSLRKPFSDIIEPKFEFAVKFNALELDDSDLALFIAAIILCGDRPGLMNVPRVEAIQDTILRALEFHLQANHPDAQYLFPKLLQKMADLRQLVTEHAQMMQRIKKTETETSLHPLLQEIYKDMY
# [3] = biological target: T3, Peroxisome proliferator-activated receptor gamma (Homo sapiens, UniProt P37231); test: Affinity On-target Cellular interaction: (Reporter gene assay (HEK293T cells)) EUB0000188b PPARG; type: functional, cell-based, HEK-293T; set-up: mode of action Agonist, recommended concentration 1 uM
# T3 sequence (P37231 whole entry): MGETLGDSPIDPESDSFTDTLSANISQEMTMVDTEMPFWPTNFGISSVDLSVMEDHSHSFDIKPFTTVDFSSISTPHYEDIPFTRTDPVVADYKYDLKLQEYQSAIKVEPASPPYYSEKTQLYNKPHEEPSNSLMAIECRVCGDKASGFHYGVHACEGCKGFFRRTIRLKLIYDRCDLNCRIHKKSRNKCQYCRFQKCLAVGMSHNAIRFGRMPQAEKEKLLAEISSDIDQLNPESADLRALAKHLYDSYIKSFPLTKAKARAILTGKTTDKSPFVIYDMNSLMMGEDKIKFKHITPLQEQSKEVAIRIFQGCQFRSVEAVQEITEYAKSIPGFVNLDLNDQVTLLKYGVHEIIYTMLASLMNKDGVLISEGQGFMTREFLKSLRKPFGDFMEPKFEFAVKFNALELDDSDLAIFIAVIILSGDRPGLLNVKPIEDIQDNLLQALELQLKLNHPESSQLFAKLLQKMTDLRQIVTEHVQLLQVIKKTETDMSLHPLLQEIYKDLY
# [4] = biological target: T2, Peroxisome proliferator-activated receptor delta
# [5] = biological target: Retinoic acid receptor alpha (Homo sapiens, UniProt P10276); test: Affinity On-target Cellular interaction: (Reporter gene assay (HEK293T cells)) EUB0000565a RARA; type: functional, cell-based, HEK-293T; set-up: mode of action Agonist, recommended concentration 1 uM
# Retinoic acid receptor alpha, sequence (P10276 whole entry): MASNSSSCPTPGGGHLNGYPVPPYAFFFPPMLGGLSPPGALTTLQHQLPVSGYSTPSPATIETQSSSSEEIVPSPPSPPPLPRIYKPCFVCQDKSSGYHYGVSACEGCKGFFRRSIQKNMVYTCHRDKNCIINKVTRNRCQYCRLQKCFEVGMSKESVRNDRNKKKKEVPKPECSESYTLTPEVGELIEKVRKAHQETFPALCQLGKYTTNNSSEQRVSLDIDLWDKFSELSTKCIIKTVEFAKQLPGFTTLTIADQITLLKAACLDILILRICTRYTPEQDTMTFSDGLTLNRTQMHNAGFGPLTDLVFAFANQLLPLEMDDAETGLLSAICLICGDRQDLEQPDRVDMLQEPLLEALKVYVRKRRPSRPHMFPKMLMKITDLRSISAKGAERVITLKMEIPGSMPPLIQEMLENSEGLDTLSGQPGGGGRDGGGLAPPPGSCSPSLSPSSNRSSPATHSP
# [6] = biological target: T4, Vitamin D3 receptor (Homo sapiens, UniProt P11473); test: Affinity On-target Cellular interaction: (Reporter gene assay (HEK293T cells)) EUB0000583a VDR; type: functional, cell-based, HEK-293T; set-up: mode of action Agonist, recommended concentration 1 uM
# T4 sequence (P11473 whole entry): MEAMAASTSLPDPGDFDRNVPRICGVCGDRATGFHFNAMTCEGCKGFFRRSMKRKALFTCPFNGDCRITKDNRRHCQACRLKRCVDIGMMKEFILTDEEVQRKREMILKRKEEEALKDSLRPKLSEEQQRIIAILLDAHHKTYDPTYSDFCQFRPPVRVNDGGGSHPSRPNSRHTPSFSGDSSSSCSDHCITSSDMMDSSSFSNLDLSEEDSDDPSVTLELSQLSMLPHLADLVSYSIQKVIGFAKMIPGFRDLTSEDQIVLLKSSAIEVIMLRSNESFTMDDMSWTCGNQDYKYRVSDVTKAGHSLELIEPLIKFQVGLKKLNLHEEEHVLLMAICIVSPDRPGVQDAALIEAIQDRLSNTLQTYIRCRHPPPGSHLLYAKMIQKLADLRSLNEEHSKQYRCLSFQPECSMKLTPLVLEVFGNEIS
# [7] = biological target: T1, Peroxisome proliferator-activated receptor alpha; test: Affinity On-target Cellular interaction: (Reporter gene assay (HEK293T cells)) EUB0000581a PPARA; type: functional, cell-based, HEK-293T; set-up: mode of action Agonist, recommended concentration 1 uM
# [8] = biological target: T2, Peroxisome proliferator-activated receptor delta; test: Affinity On-target Cellular interaction: (Reporter gene assay (HEK293T cells)) EUB0001141a PPARD; type: functional, cell-based, HEK-293T; set-up: mode of action Agonist, recommended concentration 1 uM
# [9] = biological target: T5, Oxysterols receptor LXR-beta (Homo sapiens, UniProt P55055); test: Affinity On-target Cellular interaction: (Reporter gene assay (HEK293T cells)) EUB0000183b NR1H2; type: functional, cell-based, HEK-293T; set-up: mode of action Antagonist, recommended concentration 3 uM
# T5 sequence (P55055 whole entry): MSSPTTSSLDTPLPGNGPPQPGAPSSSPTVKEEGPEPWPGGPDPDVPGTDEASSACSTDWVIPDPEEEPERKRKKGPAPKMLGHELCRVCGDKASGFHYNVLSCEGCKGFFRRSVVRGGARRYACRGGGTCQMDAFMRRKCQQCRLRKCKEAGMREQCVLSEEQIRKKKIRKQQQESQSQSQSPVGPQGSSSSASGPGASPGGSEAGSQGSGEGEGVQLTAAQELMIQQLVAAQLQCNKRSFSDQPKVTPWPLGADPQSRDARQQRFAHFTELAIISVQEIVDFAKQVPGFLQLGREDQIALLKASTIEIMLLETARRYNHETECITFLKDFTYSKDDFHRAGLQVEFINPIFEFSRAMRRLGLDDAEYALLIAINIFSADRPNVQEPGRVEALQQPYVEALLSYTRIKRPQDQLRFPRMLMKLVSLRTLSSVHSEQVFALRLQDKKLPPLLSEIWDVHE
# [10] = biological target: T6, Oxysterols receptor LXR-alpha (Homo sapiens, UniProt Q13133); test: Affinity On-target Cellular interaction: (Reporter gene assay (HEK293T cells)) EUB0000183b NR1H3; type: functional, cell-based, HEK-293T; set-up: mode of action Antagonist, recommended concentration 3 uM
# T6 sequence (Q13133 whole entry): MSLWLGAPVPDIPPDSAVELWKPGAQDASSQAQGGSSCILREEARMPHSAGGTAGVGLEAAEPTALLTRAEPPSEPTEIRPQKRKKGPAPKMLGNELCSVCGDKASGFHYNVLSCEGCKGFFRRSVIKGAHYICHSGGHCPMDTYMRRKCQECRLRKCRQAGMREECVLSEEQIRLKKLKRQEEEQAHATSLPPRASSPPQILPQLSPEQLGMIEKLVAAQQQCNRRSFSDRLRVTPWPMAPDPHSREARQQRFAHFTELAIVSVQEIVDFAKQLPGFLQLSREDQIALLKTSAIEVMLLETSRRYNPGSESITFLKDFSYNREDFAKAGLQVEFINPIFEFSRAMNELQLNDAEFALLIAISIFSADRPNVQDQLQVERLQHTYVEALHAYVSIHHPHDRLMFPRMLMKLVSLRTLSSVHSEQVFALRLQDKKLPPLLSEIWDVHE
# [11] = biological target: T4, Vitamin D3 receptor; test: Affinity On-target Cellular interaction: (Reporter gene assay (HEK293T cells)) EUB0000582a VDR; type: functional, cell-based, HEK-293T; set-up: mode of action Agonist, recommended concentration 1 uM
# [12] = biological target: T3, Peroxisome proliferator-activated receptor gamma; test: Affinity On-target Cellular interaction: (Reporter gene assay (HEK293T cells)) EUB0001147a PPARG; type: functional, cell-based, HEK-293T; set-up: mode of action Agonist, recommended concentration 1 uM
# [13] = biological target: T1, Peroxisome proliferator-activated receptor alpha; test: Affinity On-target Cellular interaction: (Reporter gene assay (HEK293T cells)) EUB0001147a PPARA; type: functional, cell-based, HEK-293T; set-up: mode of action Agonist, recommended concentration 1 uM
# [14] = biological target: Nucleotide triphosphate diphosphatase NUDT15 (Homo sapiens) (UniProt Q9NV35); test: Affinity On-target Cellular interaction: (Cellular thermal shift assay, HL-60 cells) EUB0002330a NUDT15; type: functional, cell-based; set-up: recommended concentration 1 uM; settings: Affinity On-target Cellular Source Knowledge https://www.nature.com/articles/s41589-020-0592-z
# Nucleotide triphosphate diphosphatase NUDT15 (Homo sapiens), sequence (Q9NV35 whole entry): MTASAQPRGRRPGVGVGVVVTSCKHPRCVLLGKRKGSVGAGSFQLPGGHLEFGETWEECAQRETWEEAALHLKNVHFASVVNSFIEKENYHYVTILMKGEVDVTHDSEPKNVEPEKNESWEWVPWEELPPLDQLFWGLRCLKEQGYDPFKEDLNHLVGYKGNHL
# [15] = biological target: T1, Peroxisome proliferator-activated receptor alpha; test: Affinity On-target Cellular interaction: (Reporter gene assay (HEK293T cells)) EUB0001144a PPARA; type: functional, cell-based, HEK-293T; set-up: mode of action Agonist, recommended concentration 1 uM
# [16] = biological target: T3, Peroxisome proliferator-activated receptor gamma; test: Affinity On-target Cellular interaction: (Reporter gene assay (HEK293T cells)) EUB0001144a PPARG; type: functional, cell-based, HEK-293T; set-up: mode of action Agonist, recommended concentration 1 uM
# [17] = biological target: Lysine-specific demethylase 4A (Homo sapiens) (UniProt O75164); test: Affinity On-target Cellular interaction: (Cellular thermal shift assay (CETSA), U2OS cells) EUB0002543a KDM4A; type: functional, cell-based; set-up: recommended concentration 1 uM; settings: Affinity On-target Cellular Source Knowledge https://www.nature.com/articles/ncomms14773#Tab1
# Lysine-specific demethylase 4A (Homo sapiens), sequence (O75164 whole entry): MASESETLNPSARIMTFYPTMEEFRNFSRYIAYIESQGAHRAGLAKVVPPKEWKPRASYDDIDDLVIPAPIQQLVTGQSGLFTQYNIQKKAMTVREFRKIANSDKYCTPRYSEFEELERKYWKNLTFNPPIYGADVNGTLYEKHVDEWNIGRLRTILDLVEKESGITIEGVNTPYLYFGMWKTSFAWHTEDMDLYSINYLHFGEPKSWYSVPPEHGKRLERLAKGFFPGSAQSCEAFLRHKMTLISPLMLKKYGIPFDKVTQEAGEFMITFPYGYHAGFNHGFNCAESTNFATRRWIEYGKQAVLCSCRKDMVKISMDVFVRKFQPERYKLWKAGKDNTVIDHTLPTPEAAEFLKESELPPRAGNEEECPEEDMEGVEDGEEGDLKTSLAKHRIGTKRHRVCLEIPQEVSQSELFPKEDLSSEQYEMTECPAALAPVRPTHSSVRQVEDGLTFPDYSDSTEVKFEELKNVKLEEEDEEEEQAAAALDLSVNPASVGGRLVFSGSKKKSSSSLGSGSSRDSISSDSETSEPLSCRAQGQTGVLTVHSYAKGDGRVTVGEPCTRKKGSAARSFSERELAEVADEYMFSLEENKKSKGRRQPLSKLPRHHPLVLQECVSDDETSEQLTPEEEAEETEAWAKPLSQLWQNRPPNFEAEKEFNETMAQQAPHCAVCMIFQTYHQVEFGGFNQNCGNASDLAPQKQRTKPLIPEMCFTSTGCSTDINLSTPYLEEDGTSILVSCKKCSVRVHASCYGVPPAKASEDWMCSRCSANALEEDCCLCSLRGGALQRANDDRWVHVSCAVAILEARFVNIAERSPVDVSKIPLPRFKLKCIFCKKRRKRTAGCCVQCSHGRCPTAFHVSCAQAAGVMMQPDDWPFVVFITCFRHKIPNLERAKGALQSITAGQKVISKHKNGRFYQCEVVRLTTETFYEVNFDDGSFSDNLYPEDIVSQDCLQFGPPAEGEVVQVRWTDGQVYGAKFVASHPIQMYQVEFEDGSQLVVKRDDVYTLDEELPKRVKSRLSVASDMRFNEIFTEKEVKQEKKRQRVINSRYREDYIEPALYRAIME
smiles,measurement,setting,value
CCCc1c(OCCCOc2ccc(OCC(=O)O)cc2)ccc(C(C)=O)c1O,EC50,[1],1000 nM
same,EC50,[2],15 nM
same,EC50,[3],980 nM
O=C(O)CCCc1cc2cc(Cl)ccc2n1S(=O)(=O)c1ccc2ncsc2c1 [LANIFIBRANOR],EC50,[4],900 nM
CC1(C)C(=O)C(C)(C)c2cc(C(=O)Nc3ccc(C(=O)O)cc3)ccc21,EC50,[5],110 nM
C=C1/C(=C\C=C2/CCC[C@]3(C)[C@@H]([C@H](C)/C=C/[C@H](C)C(C)C)CC[C@@H]23)C[C@@H](O)C[C@@H]1O [DOXERCALCIFEROL],EC50,[6],960 nM
CC(C)c1ccc(CC(=O)N2CCC[C@@H](c3cccc(OC(C)(C)C(=O)O)c3)C2)cc1,EC50,[7],50 nM
Cc1nc(-c2ccc(C(F)(F)F)cc2)sc1C(=O)NCc1ccc(OC(C)(C)C(=O)O)cc1 [GW590735],EC50,[8],160 nM
Cc1cc(C)c(S(=O)(=O)N(Cc2ccc(-c3cccc(S(C)(=O)=O)c3)cc2)Cc2ccc(C(F)(F)F)o2)c(C)c1,IC50,[9],40 nM
same,IC50,[10],100 nM
C=C1/C(=C\C=C2/CCC[C@]3(C)[C@@H]([C@H](C)/C=C/C=C/C(O)(CC)CC)CC[C@@H]23)C[C@@H](O)C[C@@H]1O [SEOCALCITOL],EC50,[11],110 nM
CSc1ccc(C(=O)/C=C/c2cc(C)c(OC(C)(C)C(=O)O)c(C)c2)cc1 [ELAFIBRANOR],EC50,[12],410 nM
same,EC50,[13],130 nM
O=C(c1ccc2[nH]ccc2c1)N1CCN(S(=O)(=O)c2ccc3[nH]c(=O)oc3c2)CC1,K,[14],280 nM
CCO[C@@H](Cc1ccc(OCCc2ccc(OS(C)(=O)=O)cc2)cc1)C(=O)O [TESAGLITAZAR],EC50,[15],290 nM
same,EC50,[16],130 nM
CC(C)[C@@H]1NC(=O)[C@H](Cc2ccc(O)cc2)NC(=O)[C@@H](CC(=O)O)NC(=O)S[C@@H](C(=O)O)NC(=O)[C@H]([C@H](C)O)NC(=O)[C@H](Cc2ccc(O)cc2)NC(=O)[C@H](Cc2c[nH]c3ccccc23)NC(=O)[C@H](CCCNC(=N)N)NC(=O)[C@H](Cc2c[nH]c3ccccc23)NC(=O)[C@H](C)NC(=O)[C@H](CO)NC(=O)[C@H](CCCNC(=N)N)NC(=O)[C@H]([C@H](C)O)NC(=O)[C@H](CC(N)=O)NC(=O)[C@H](Cc2ccc(O)cc2)NC1=O,K,[17],285 nM
